Data reported in patent US20110092510A1, “DPP-IV INHIBITORS FOR USE IN THE TREATMENT OF NAFLD” (BOEHRINGER INGELHEIM INTERNATIONAL GMBH, priority 2008, published 2011).
Entries after “also recorded” stand apart in the source; their conditions may differ.

Legend:
[1] = Excretion/elimination of BI 1356 at therapeutic oral dose levels; assay type: in vivo
[2] = Safety and tolerability in people with type 2 diabetes; assay type: in vivo

fraction excreted via the kidney [1]: < 7 % of the administered oral dose
SMILES: CC#CCn1c(N2CCC[C@@H](N)C2)nc2c1c(=O)n(Cc1nc(C)c3ccccc3n1)c(=O)n2C [BI 1356, 1-[(4-methyl-quinazolin-2-yl)methyl]-3-methyl-7-(2-butyn-1-yl)-8-(3-(R)-amino-piperidin-1-yl)-xanthine]
main route of excretion [1]: mainly excreted via the liver; also recorded: primarily excreted unchanged via the bile
safety and tolerability [2]: placebo-like safety and tolerability
